In assay [1] the target is T1, human Chk2 kinase (Homo sapiens, UniProt O96017).
For a further assay, the target named is T2, human Chk1 kinase (Homo sapiens, UniProt O14757).
T2 sequence (O14757 1-476): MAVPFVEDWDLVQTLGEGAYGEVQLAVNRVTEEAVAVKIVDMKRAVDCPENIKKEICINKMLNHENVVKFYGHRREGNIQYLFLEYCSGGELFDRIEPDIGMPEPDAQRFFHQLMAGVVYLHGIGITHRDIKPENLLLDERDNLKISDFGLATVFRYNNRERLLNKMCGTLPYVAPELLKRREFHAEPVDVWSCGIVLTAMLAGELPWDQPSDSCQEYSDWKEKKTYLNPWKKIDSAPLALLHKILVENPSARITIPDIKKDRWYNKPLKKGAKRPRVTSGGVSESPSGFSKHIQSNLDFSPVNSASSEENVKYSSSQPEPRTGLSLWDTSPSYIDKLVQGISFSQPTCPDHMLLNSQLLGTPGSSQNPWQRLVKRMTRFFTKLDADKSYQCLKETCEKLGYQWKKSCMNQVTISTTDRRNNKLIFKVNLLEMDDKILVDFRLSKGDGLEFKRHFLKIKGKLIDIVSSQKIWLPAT
Nature of the assay: biochemical.

The next assay addresses T3, RSK1 (Homo sapiens, UniProt Q15418).
T3 construct: purchased Eurofins (KinaseProfiler service)
Nature of the assay: RSK1-4 kinase assay (Eurofins KinaseProfiler, radiometric): RSK1. Type of assay: biochemical. To be noted: approximately ATP Km. An excerpt:
(§1) The radiometric kinase activity assays were run at approximately the ATP Km for each kinase and the IC50 data is shown in Table 24.

Another assay has as its target T4, RSK2 (Homo sapiens, UniProt P51812).
T4 construct: purchased Eurofins (KinaseProfiler service)
The assay can be described thus: RSK1-4 kinase assay (Eurofins KinaseProfiler, radiometric): RSK2. It counts as biochemical. To be noted: approximately ATP Km.
From the text: as §1

The next assay has as its target T5, RSK3 (Homo sapiens, UniProt Q15349).
T5 construct: purchased Eurofins (KinaseProfiler service)
Nature of the assay: RSK1-4 kinase assay (Eurofins KinaseProfiler, radiometric): RSK3. It counts as biochemical. To be noted: approximately ATP Km.
From the text: as §1

The target of another assay is T6, RSK4 (Homo sapiens, UniProt Q9UK32).
T6 construct: purchased Eurofins (KinaseProfiler service)
Nature of the assay: RSK1-4 kinase assay (Eurofins KinaseProfiler, radiometric): RSK4. It counts as biochemical. To be noted: approximately ATP Km.
From the text: as §1

In assay [2] the test system is pChk1(Ser296) in SW620 cells. Nature of the assay: pChk1(Ser296) sandwich ELISA, cell-based on-target kinase activity. Conditions: Homo sapiens, read-out: SW620 pIC50 (converted). As for the experimental part:
ELISA assays were performed as per the manufacturer's protocol. […] Selected compounds of the invention were tested as a 8-point concentration response up to a maximum concentration of either 1 μM, 3 μM or 10 μM. The percent (%) effect i.e. inhibition at each concentration of compound was calculated based on, and relative to, the amount of inhibition produced in the vehicle control and inhibited control wells contained within each plate.

In another assay the test system is GBM LN18 cells. Nature of the assay: In vitro cell viability assay (Cell Titre Glo, 72 hours). It counts as cell-based. Conditions: Homo sapiens, LN-18, read-out: LN18 pIC50 (converted). As for the experimental part: GBM LN18 cells were incubated with increasing concentrations of selected compounds of the invention for 72 hours prior to the measurement of ATP in metabolically viable cells with the Cell Titre® Glo Luminescent reagent. A 10-point concentration response curve up to a maximum concentration of 10 μM was tested.
The percent (%) effect i.e., inhibition at each concentration of compound was calculated based on, and relative to the amount of inhibition produced in the vehicle control and inhibited control wells contained within each plate.

Assay [3] concerns the target T1, human Chk2 kinase. Nature of the assay: biochemical.
Assay [4] relates to 373 human wild-type kinases. The assay can be described thus: Kinome selectivity, Eurofins KinaseProfiler kinase screen. Type of assay: biochemical. Conditions: panel of 373 human wild-type kinases, approximately ATP Km, top concentration 10 μM. The source says: The radiometric kinase activity assays were run at approximately the ATP Km for each kinase.
[5] abbreviates: SW-620, neocarzinostatin 7.5 μM, 2 hours.
The mark [6] stands for this setting: SW-620, 2 h, neocarzinostatin 7.5 μM.

Read-outs that look alike come from different tables or passages of the source.

T6 sequence (Q9UK32 whole entry): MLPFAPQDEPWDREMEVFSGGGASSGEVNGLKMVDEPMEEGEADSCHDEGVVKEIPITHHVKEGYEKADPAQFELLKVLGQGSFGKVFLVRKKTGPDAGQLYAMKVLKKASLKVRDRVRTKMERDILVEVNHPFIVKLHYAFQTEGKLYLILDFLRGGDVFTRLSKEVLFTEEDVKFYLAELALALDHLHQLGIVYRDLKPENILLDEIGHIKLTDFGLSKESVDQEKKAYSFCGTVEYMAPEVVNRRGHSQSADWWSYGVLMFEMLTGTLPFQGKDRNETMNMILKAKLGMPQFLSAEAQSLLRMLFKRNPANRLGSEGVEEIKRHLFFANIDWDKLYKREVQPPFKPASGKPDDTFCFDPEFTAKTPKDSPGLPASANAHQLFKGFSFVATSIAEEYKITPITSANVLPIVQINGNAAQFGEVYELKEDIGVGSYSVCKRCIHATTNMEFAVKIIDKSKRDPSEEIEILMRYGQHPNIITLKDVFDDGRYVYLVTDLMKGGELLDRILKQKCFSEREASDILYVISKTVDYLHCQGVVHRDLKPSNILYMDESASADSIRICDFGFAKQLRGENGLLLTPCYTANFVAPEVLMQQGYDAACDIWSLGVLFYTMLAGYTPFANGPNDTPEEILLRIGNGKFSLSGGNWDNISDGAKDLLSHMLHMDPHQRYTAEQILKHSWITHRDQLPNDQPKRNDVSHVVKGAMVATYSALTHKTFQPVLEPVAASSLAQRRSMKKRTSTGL
T4 sequence (P51812 whole entry): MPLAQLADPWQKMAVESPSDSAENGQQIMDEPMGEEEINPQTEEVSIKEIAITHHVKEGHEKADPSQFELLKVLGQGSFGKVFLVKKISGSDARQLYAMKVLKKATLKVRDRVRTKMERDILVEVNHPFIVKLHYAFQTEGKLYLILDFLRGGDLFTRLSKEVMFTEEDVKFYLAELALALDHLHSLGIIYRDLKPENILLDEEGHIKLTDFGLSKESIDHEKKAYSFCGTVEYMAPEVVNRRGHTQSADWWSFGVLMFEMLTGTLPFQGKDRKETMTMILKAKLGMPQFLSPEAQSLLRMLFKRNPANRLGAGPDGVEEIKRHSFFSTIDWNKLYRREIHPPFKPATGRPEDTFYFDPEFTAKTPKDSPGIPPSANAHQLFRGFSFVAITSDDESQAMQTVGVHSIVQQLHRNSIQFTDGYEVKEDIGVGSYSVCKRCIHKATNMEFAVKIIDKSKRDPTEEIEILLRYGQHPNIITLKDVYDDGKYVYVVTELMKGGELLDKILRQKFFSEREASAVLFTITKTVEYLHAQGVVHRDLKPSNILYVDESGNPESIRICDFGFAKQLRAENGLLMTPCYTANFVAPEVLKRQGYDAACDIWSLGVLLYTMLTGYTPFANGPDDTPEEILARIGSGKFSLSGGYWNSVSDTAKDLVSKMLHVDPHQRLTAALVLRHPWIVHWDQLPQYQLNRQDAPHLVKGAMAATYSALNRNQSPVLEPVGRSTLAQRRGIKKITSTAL
T3 sequence (Q15418 whole entry): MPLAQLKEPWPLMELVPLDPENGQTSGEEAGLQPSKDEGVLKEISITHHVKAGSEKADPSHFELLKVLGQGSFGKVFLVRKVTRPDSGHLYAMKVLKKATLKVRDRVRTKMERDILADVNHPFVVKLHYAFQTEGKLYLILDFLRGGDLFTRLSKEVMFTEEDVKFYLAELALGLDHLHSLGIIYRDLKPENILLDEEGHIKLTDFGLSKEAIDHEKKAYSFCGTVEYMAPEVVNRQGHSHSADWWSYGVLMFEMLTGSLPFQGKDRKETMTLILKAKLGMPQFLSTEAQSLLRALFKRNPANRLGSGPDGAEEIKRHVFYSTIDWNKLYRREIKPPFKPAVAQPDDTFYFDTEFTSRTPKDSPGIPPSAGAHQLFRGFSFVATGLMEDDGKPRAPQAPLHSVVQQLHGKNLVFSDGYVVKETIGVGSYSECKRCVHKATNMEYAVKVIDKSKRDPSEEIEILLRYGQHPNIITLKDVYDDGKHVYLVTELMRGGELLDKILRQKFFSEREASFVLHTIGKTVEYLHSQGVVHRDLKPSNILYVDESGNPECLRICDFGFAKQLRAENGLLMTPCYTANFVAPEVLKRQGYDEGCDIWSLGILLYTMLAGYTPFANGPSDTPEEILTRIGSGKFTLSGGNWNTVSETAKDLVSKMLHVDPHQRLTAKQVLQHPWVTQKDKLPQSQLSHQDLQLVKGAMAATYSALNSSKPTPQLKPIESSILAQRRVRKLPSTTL
T5 sequence (Q15349 whole entry): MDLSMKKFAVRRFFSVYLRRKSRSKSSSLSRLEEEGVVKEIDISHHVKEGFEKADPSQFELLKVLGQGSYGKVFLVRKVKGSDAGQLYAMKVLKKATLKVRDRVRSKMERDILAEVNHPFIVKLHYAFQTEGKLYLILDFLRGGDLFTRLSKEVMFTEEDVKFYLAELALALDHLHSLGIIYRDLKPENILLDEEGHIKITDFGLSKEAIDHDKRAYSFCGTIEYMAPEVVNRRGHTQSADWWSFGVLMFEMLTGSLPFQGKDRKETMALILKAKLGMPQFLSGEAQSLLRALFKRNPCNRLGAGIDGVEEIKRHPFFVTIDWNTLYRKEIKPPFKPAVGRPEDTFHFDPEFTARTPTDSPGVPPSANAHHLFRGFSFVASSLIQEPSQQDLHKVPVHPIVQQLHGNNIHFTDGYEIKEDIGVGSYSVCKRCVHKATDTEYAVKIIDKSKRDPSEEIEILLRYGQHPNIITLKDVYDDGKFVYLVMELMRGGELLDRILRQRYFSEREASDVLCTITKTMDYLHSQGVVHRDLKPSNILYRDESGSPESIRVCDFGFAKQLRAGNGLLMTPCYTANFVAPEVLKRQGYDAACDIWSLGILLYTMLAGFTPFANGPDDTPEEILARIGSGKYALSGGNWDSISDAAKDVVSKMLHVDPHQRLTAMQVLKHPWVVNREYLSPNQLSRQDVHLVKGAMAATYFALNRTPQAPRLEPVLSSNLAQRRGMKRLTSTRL
T1 sequence (O96017 whole entry): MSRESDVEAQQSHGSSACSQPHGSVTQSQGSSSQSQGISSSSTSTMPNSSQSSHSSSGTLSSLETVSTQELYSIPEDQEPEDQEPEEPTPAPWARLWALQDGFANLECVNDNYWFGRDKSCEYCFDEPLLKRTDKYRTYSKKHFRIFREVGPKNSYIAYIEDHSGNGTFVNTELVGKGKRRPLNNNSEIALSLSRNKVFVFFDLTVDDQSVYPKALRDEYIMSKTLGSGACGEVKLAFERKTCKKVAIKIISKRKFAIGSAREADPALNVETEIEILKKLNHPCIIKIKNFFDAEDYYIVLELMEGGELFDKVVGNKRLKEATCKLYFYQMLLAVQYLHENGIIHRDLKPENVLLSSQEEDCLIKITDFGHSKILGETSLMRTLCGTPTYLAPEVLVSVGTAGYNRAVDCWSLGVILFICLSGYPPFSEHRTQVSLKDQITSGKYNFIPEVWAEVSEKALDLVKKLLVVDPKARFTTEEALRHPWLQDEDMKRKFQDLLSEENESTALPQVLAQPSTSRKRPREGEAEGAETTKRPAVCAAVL

`CN1CCOC(c2ccc(-n3cnc(Nc4cnc(C#N)cn4)c3)cc2)C1` (single isomer, unassigned) [Example 106, 5-((1-(4-(4-Methylmorpholin-2-yl)phenyl)-1H-imidazol-4-yl)amino)pyrazine-2-carbonitrile]: on human Chk2 kinase [1], the IC50 was in the range of 10 to 100 µM.
Take `CN(C)CC1CN(c2cccc(-n3cnc(Nc4cnc(C#N)cn4)c3)c2)CCO1` (single isomer, unassigned) [Example 108, 5-((1-(3-(2-((Dimethylamino)methyl)morpholino)phenyl)-1H-imidazol-4-yl)amino)pyrazine-2-carbonitrile]: the IC50 at human Chk2 kinase [1] lay within 10 to 100 µM; against human Chk1 kinase it was 0.01 to 0.0316 µM.
Turning to `CN(C)C1CCCN(c2cccc(-n3cnc(Nc4cnc(C#N)cn4)c3)c2)C1` (single isomer, unassigned) [Example 112, 5-((1-(3-(3-(Dimethylamino)piperidin-1-yl)phenyl)-1H-imidazol-4-yl)amino)pyrazine-2-carbonitrile], on human Chk2 kinase [1], the IC50 fell in the range of 10 to 100 µM.
`N#Cc1cnc(Nc2cn(-c3ccc(N4CCN5CCCC5C4)cc3)cn2)cn1` (single isomer, unassigned) [Example 118, 5-((1-(4-(Hexahydropyrrolo[1,2-a]pyrazin-2(1H)-yl)phenyl)-1H-imidazol-4-yl)amino)pyrazine-2-carbonitrile]: the IC50 on human Chk2 kinase [1] was over 100 µM.
At human Chk2 kinase [1], `CN1CCC12CCN(c1ccc(-n3cnc(Nc4cnc(C#N)cn4)c3)cc1)C2` (single isomer, unassigned) [Example 128, 5-((1-(4-(1-Methyl-1,6-diazaspiro[3.4]octan-6-yl)phenyl)-1H-imidazol-4-yl)amino)pyrazine-2-carbonitrile] had an IC50 of over 100 µM.
Turning to `N#Cc1cnc(Nc2cn(-c3ccc(N4CCC(N5CC6(CCC6)C5)C4)cc3)cn2)cn1` (single isomer, unassigned) [Example 132, 5-((1-(4-(3-(2-Azaspiro[3.3]heptan-2-yl)pyrrolidin-1-yl)phenyl)-1H-imidazol-4-yl)amino)pyrazine-2-carbonitrile], on human Chk2 kinase [1], the IC50 lay in the range of 1 to 10 µM.
Molecule `N#Cc1cnc(Nc2cn(-c3cccc(N4CCC(N)C(F)(F)C4)c3)cn2)cn1` (single isomer, unassigned) [Example 167, 5-((1-(3-(4-Amino-3,3-difluoropiperidin-1-yl)phenyl)-1H-imidazol-4-yl)amino)pyrazine-2-carbonitrile] registered an IC50 at human Chk2 kinase [1] of over 100 µM.
Take `COc1cccc(OCCCN)c1-c1cc(Nc2cnc(C#N)cn2)n[nH]1` [Comparator Ex. 1, 5-((5-(2-(3-Aminopropoxy)-6-methoxyphenyl)-1H-pyrazol-3-yl)amino)pyrazine-2-carbonitrile, reference compound]: the IC50 on RSK1 was 0.02 µM; against RSK2, 0.002 µM; on RSK3, 0.004 µM; at RSK4 it was 0.005 µM.
Take `COc1cc(N2CCN(C)CC2)ccc1-c1cc(Nc2cnc(C#N)cn2)n[nH]1` [Comparator Ex. 2, 5-((5-(2-Methoxy-4-(4-methylpiperazin-1-yl)phenyl)-1H-pyrazol-3-yl)amino)pyrazine-2-carbonitrile, reference compound]: the IC50 against RSK1 came out at 0.259 µM; against RSK2, 0.08 µM; against RSK3 it was 0.024 µM; against RSK4, 0.077 µM.
Taken in the same sequence, the figures for `CCNCc1ccc(-c2cc(Nc3cnc(C#N)cn3)n[nH]2)c(OC)c1` [Comparator Ex. 3, 5-((5-(4-((Ethylamino)methyl)-2-methoxyphenyl)-1H-pyrazol-3-yl)amino)pyrazine-2-carbonitrile, reference compound] were 0.57 µM, 0.172 µM, 0.06 µM and 0.163 µM.
`CN1CCC(F)(c2ccc(-n3cnc(Nc4cnc(C#N)cn4)c3)cc2)CC1` [Example 4, 5-((1-(4-(4-Fluoro-1-methylpiperidin-4-yl)phenyl)-1H-imidazol-4-yl)amino)pyrazine-2-carbonitrile]: the IC50 was over 10 µM against RSK1, 2.46 µM against RSK2, 2.21 µM against RSK3 and 4.96 µM on RSK4.
As for `CN(C)[C@@H]1CCN(c2ccc(-n3cnc(Nc4cnc(C#N)cn4)c3)cc2)C1` [Example 12, (R)-5-((1-(4-(3-(Dimethylamino)pyrrolidin-1-yl)phenyl)-1H-imidazol-4-yl)amino)pyrazine-2-carbonitrile], the IC50 was under 1 µM in [2] (setting [5]); over 10 µM against RSK1; 6.62 µM at RSK2; 4.34 µM on RSK3; under 1 µM with GBM LN18 cells; 9.2 µM against RSK4. This molecule gave an IC50 on human Chk1 kinase of under 0.01 µM.
As for `CN1CCC12CN(c1ccc(-n3cnc(Nc4cnc(C#N)cn4)c3)cc1)C2` [Example 61, 5-((1-(4-(1-Methyl-1,6-diazaspiro[3.3]heptan-6-yl)phenyl)-1H-imidazol-4-yl)amino)pyrazine-2-carbonitrile], the IC50 was 6.78 µM on RSK1; 2.67 µM against RSK2; 1.92 µM against RSK3; 10 to 100 µM at human Chk2 kinase [3]; 4.07 µM against RSK4; 0.01 to 0.0316 µM at human Chk1 kinase.
With `CN[C@H]1CN(c2ccc(-n3cnc(Nc4cnc(C#N)cn4)c3)cc2)C[C@H]1F` [Example 92, 5-((1-(4-((3R,4S)-3-Fluoro-4-(methylamino)pyrrolidin-1-yl)phenyl)-1H-imidazol-4-yl)amino)pyrazine-2-carbonitrile], the IC50 was under 1 µM in assay [2] (setting [6]), 1 to 10 µM on human Chk2 kinase [3], under 1 µM in the assay with GBM LN18 cells and under 0.01 µM against human Chk1 kinase.
Take `N#Cc1cnc(Nc2cn(-c3ccc(N4CC[C@@H](N)C4)cc3)cn2)cn1` [Example 153, (R)-5-((1-(4-(3-Aminopyrrolidin-1-yl)phenyl)-1H-imidazol-4-yl)amino)pyrazine-2-carbonitrile]: the IC50 in assay [2] (setting [6]) is 1 to 10 µM; against human Chk2 kinase [3], 1 to 10 µM; in the assay with GBM LN18 cells, 1 to 10 µM; at human Chk1 kinase, 0.01 to 0.0316 µM.
With `N#Cc1cnc(Nc2cn(-c3ccc(N4C[C@H](N)C5(CC5)C4)cc3)cn2)cn1` [Example 154, (R)-5-((1-(4-(7-Amino-5-azaspiro[2.4]heptan-5-yl)phenyl)-1H-imidazol-4-yl)amino)pyrazine-2-carbonitrile], the IC50 was 1 to 10 µM in [2] (setting [6]), 1 to 10 µM against human Chk2 kinase [3], under 1 µM in the assay on GBM LN18 cells and under 0.01 µM at human Chk1 kinase.
Take `CN[C@@H]1CCN(c2ccc(-n3cnc(Nc4cnc(C#N)cn4)c3)cc2)C1` [Example 155, (R)-5-((1-(4-(3-(Methylamino)pyrrolidin-1-yl)phenyl)-1H-imidazol-4-yl)amino)pyrazine-2-carbonitrile]: the IC50 is under 1 µM in [2] (setting [6]); 3.42 µM against RSK1; 1.12 µM against RSK2; 0.822 µM against RSK3; 1 to 10 µM against human Chk2 kinase [3]; under 1 µM in the assay on GBM LN18 cells. The IC50 was 1.96 µM at RSK4 and under 0.01 µM at human Chk1 kinase. In addition, in assay [4], the “Number of 372 kinases inhibited relative to Chk1 IC50 Within 10-fold” value is on record as 1. In addition, in assay [4], the “Number of 372 kinases inhibited relative to Chk1 IC50 Within 100-fold” value is 6.
Consider `C[C@@]1(N)CCN(c2ccc(-n3cnc(Nc4cnc(C#N)cn4)c3)cc2)C1` [Example 156, (R)-5-((1-(4-(3-Amino-3-methylpyrrolidin-1-yl)phenyl)-1H-imidazol-4-yl)amino)pyrazine-2-carbonitrile], for which the IC50 in assay [2] (setting [6]) was 1 to 10 µM; against human Chk2 kinase [3], 10 to 100 µM; in the assay with GBM LN18 cells, under 1 µM; at human Chk1 kinase it was 0.01 to 0.0316 µM.
On to `N#Cc1cnc(Nc2cn(-c3ccccc3OCCCN)cn2)cn1` [Example 168, 5-((1-(2-(3-Aminopropoxy)phenyl)-1H-imidazol-4-yl)amino)pyrazine-2-carbonitrile], for which the IC50 was 1 to 10 µM in assay [2] (setting [5]); over 10 µM against RSK1; 7.07 µM at RSK2; 5.83 µM on RSK3; 1 to 10 µM in the assay on GBM LN18 cells; over 10 µM on RSK4.
